Data as given in PMC3517155 (ChemMedChem, 2009).

Assays:
[1] = target: T1, DAT (Rattus norvegicus, UniProt P23977); test: DAT binding, inhibition of [3H]WIN 35,428 binding in rat striatum
[2] = target: T1, DAT; test: DAT uptake, inhibition of [3H]DA uptake in rat striatum; assay type: biochemical; conditions: for Selectivity ratio DAT uptake/DAT binding: ratio of Ki values
[3] = target: SERT (Rattus norvegicus, UniProt P31652); test: SERT uptake, inhibition of [3H]5-HT uptake in rat cerebral cortex; assay type: biochemical; conditions: for Selectivity ratio SERT uptake/DAT uptake: ratio of Ki values
Sequence of SERT (P31652 whole entry): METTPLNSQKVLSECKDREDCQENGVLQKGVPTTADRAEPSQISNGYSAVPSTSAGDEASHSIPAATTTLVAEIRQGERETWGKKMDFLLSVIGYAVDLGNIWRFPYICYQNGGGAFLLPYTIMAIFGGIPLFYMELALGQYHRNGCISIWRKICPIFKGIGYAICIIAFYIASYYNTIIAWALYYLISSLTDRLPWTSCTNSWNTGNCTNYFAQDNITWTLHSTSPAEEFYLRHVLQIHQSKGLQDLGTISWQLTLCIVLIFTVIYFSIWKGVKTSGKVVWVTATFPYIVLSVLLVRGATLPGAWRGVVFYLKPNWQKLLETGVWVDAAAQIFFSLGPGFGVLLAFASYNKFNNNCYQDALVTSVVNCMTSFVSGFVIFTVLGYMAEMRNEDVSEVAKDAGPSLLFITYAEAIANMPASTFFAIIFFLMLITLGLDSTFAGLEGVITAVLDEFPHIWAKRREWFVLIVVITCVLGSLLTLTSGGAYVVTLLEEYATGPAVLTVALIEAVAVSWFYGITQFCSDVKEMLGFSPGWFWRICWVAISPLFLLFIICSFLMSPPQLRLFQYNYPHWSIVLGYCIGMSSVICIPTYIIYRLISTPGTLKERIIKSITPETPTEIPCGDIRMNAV

[4] = test system: NET; test: NET uptake, inhibition of [3H]NE uptake in rat hippocampus; assay type: biochemical; conditions: ratio of Ki values
[5] = test system: Swiss-Webster mice; test: Locomotor activity in mice; conditions: i.p., 1 mg/kg
[6] = test system: rats trained to discriminate 10 mg/kg cocaine from saline; test: Cocaine drug discrimination in rats; conditions: at 10 and 30 mg/kg i.p.

T1 sequence (P23977 whole entry): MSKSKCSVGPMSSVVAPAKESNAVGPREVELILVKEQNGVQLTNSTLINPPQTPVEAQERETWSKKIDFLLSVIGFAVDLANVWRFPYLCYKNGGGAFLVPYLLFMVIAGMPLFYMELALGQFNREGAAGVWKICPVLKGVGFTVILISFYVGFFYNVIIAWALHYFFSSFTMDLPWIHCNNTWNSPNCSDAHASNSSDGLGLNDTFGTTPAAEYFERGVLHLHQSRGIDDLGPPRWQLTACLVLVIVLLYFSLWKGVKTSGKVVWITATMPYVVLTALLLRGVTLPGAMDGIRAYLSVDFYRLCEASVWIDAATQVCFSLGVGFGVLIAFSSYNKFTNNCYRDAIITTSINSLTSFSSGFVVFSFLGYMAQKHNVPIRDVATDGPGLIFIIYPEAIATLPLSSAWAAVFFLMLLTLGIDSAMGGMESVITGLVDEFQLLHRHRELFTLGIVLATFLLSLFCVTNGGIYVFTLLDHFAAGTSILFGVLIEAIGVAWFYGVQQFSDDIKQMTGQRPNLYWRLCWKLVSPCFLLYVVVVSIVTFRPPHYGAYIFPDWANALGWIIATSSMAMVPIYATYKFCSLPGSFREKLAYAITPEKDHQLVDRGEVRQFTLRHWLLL

| Structure (SMILES) | Ki [1] [nM] | Ki [2] [nM] | Selectivity ratio DAT uptake/DAT binding [2] | Selectivity ratio SERT uptake/DAT uptake [3] | Selectivity ratio NET uptake/DAT uptake [4] | Ki [3] [nM] | time of peak effect on distance traveled [5] [min] | percentage of cocaine-lever responding [6] [%] |
| --- | --- | --- | --- | --- | --- | --- | --- | --- |
| O[C@@H]1CN(C[C@H](O)c2ccccc2)CC[C@H]1CCOC(c1ccccc1)c1ccccc1 [9a′, (3S,4S)-4-(2-(Benzhydryloxy)ethyl)-1-((R)-2-hydroxy-2-phenylethyl)piperidin-3-ol] | 40.1 ± 19.2 | 18.4 ± 9.5 | 0.46 | 23 | 1.5 | – | – | – |
| O[C@H](CN1CC[C@@H](CCOC(c2ccccc2)c2ccccc2)[C@H](O)C1)c1ccccc1 [9b′, (3S,4S)-4-(2-(Benzhydryloxy)ethyl)-1-((S)-2-hydroxy-2-phenylethyl)piperidin-3-ol] | 0.486 ± 0.065 | 1.06 ± 0.42 | 2.2 | 220 | 110 | 231 ± 49 | – | – |
| O[C@@H]1CN(C[C@H](O)c2ccc(F)cc2)CC[C@H]1CCOC(c1ccccc1)c1ccccc1 [9c′, (3S,4S)-4-(2-(benzhydryloxy)ethyl)-1-((R)-2-(4-fluorophenyl)-2-hydroxyethyl)piperidin-3-ol] | – | 2.44 ± 0.37 | – | 160 | 10 | 402 ± 67 | – | – |
| O[C@H](CN1CC[C@@H](CCOC(c2ccccc2)c2ccccc2)[C@H](O)C1)c1ccc(F)cc1 [9d′, (3S,4S)-4-(2-(Benzhydryloxy)ethyl)-1-((S)-2-(4-fluorophenyl)-2-hydroxyethyl)piperidin-3-ol] | 2.59 ± 0.66 | 2.97 ± 0.72 | 1.2 | 600 | 7.0 | 1790 | – | – |
| O[C@@H](CN1CC[C@H](CCOC(c2ccccc2)c2ccccc2)[C@@H](O)C1)c1ccccc1 [Compound 9a, (3R,4R)-4-(2-(Benzhydryloxy)ethyl)-1-((R)-2-hydroxy-2-phenylethyl)-piperidin-3-ol] | 6.76 ± 1.75 | 6.23 ± 2.38 | 0.92 | 73 | 1.2 | 456 ± 102 | 20 to 30 | – |
| O[C@H](CN1CC[C@H](CCOC(c2ccccc2)c2ccccc2)[C@@H](O)C1)c1ccccc1 [Compound 9b, (3R,4R)-4-(2-(Benzhydryloxy)ethyl)-1-((S)-2-hydroxy-2-phenylethyl)piperidin-3-ol] | 2.29 ± 0.85 | 4.69 ± 2.06 | 2.0 | 33 | 17 | 155 ± 26 | – | – |
| O[C@@H](CN1CC[C@H](CCOC(c2ccccc2)c2ccccc2)[C@@H](O)C1)c1ccc(F)cc1 [Compound 9c, (3R,4R)-4-(2-(Benzhydryloxy)ethyl)-1-((R)-2-(4-fluorophenyl)-2-hydroxyethyl)piperidin-3-ol] | 2.17 ± 0.67 | 4.04 ± 1.22 | 2.0 | 260 | 5.4 | 1050 | – | – |
| O[C@H](CN1CC[C@H](CCOC(c2ccccc2)c2ccccc2)[C@@H](O)C1)c1ccc(F)cc1 [Compound 9d, (3R,4R)-4-(2-(Benzhydryloxy)ethyl)-1-((S)-2-(4-fluorophenyl)-2-hydroxyethyl)piperidin-3-ol] | 2.65 ± 0.99 | 1.55 ± 0.27 | 0.59 | 170 | 9.1 | 259 ± 36 | – | – |
| COC(=O)[C@H]1[C@@H](OC(=O)c2ccccc2)C[C@@H]2CC[C@H]1N2C [cocaine] | – | – | – | – | – | – | – | ≥ 80 |
